One block for each compound: values may come before it.
Columns and labels:
iPS cells = test: Amount of calcium salt deposition (OCPC), one-procedure osteogenic differentiation method; type: cell-based, human
Protocol: On-feeder iPS cells were cultured under feeder-free conditions on Matrigel coating in mTeSR (product name, Stemcell Technologies) for three days (D-3 to D0). The cells were seeded on gelatin coating and cultured in a mixed culture medium of osteogenic induction medium (OI medium) and mTeSR (mixing ratio=4:1) supplemented with a ROCK inhibitor (ROCKi) and retinoic acid (RA) for the first two days (D0 to D2). The cells were then cultured in osteogenic induction medium supplemented with retinoic acid (RA) until D10. As a control, cells were cultured in the same culture medium without retinoic acid.
iPS cells were cultured under feeder-free conditions on laminin coating in StemFit AK03N (product name, Ajinomoto Healthy Supply), and then cultured in a mixed culture medium of osteogenic induction medium (OI medium) and mTeSR (mixing ratio=4:1) supplemented with a ROCK inhibitor (ROCKi) and retinoic acid (RA) for the first two days (D0 to D2). The cells were then cultured in osteogenic induction medium supplemented with retinoic acid (RA) until D10. As a control, cells were cultured in the same culture medium without retinoic acid.
(§1) For the evaluation of calcified nodule-forming capacity, the cultured cells were fixed in ethyl alcohol, reacted with alizarin red staining solution for 10 minutes and washed. The positive nodules were evaluated qualitatively. Calcium salt deposition was determined quantitatively by measuring the intensity of color produced by o-cresolphthalein complexon (OCPC) solution.
Next, induction of osteogenic differentiation via BMP and WNT was investigated using inhibitors against them. Cells were cultured in culture medium supplemented with a BMP inhibitor (LDN) or a WNT inhibitor (IWR1) for 10 days, and the amount of calcium salt deposition was determined. […] The results confirmed that both of BMP and WNT signals are implicated in the induction of osteogenic differentiation by retinoic acid.
Cells were cultured in culture medium supplemented with BMS 493, which is an antagonist against all the retinoic acid receptors (pan-RAR antagonist) for 10 days, and the amount of calcium salt deposition was determined.
Next, the effects of siRNAs on each RAR were analyzed. […] However, addition of siRNAs against RARα (α#1 and α#2) and siRNAs against RARβ (β#1 and β#2) reduced the bone-forming capacity. […] In the figure, CTL indicates cell culture supplemented with a control siRNA, and (−) indicates cell culture with no siRNA.
Cells were subjected to the one-procedure osteogenic differentiation method in osteogenic induction medium supplemented with a retinoic acid receptor (RAR) agonist instead of retinoic acid (RA). The amount of calcium salt deposition was determined on day 10. As with addition of retinoic acid, the amount of calcium salt deposition was increased by the addition of the RARα agonists Am 580 (200 nM) and Am 80 (1 μM), or the RARβ agonists CD2314 (3 μM) and AC 55649 (3 μM).

[1] = test system: iPS cells derived from osteogenesis imperfecta patients having abnormalities of the COL1A1 gene; test: Type I collagen secretion by immunostaining with anti-type I collagen antibody, OI patient-derived iPS cells; type: cell-based, human; conditions: 100 nM added from day 2, assessed on day 10; FIG. 22
From the text: (§2) iPS cells (OI#1-1 and OI#2-1) were established from two OI patients (OI#1 and OI#2) having an abnormal COL1A1 gene. The respective mutations in the COL1A1 gene in the iPS cells were restored by genome editing technology to generate rescued iPS cells (resOI#1-1 and resOI#2-1). These iPS cells and standard iPS cells (WT1, 414C2; WT2, 409B2) were subjected to induction of osteogenic differentiation by the one-procedure osteogenic differentiation method. On day 10 of induction, the cells were compared in terms of the capacity of calcified nodule formation, the amount of calcium salt deposition, the expression of an ER stress-related gene, and the capacity of type I collagen secretion.
(§3) Accordingly, the inventors investigated whether the one-procedure osteogenic differentiation method can recapitulate the effects of an mTOR inhibitor. Rapamycin (10 nM) or everolimus (100 nM) was added to the culture medium from day 2 of the induction, and differentiation capacity was assessed on day 10.

[2] = test system: iPS cells derived from osteogenesis imperfecta patients having abnormalities of the COL1A1 gene; test: Expression of ER stress-related gene BiP in cells induced from OI patient-derived iPS cells; type: cell-based, human; conditions: 100 nM added from day 2, assessed on day 10; FIG. 21
From the text: as §2, §3

[3] = test system: iPS cells derived from osteogenesis imperfecta patients having abnormalities of the COL1A1 gene; test: Calcium salt deposition of cells induced from OI patient-derived iPS cells; type: cell-based, human; conditions: 100 nM added from day 2, assessed on day 10; FIG. 20
Protocol: as §1, §2, §3

[4] = test system: iPS cells derived from osteogenesis imperfecta patients having abnormalities of the COL1A1 gene; test: Alizarin red staining of cells induced from OI patient-derived iPS cells; type: cell-based, human; conditions: 100 nM added from day 2, assessed on day 10; FIG. 19
Protocol: as §1, §2, §3

[5] = test system: bone defects of 4 mm in diameter created in the cranium of NOD-SCID mice; test: Transplantation of day 7 induced cells into cranial bone defects, micro-CT and histology after six weeks; conditions: transplanted cells cultured in osteogenic induction medium supplemented with retinoic acid, FIG. 8B
[6] = day 10, agonist instead of retinoic acid, 3 μM, FIG. 14
[7] = day 10, agonist instead of retinoic acid, 1 μM, FIG. 14

Structure (SMILES): CC1(C)CCC(C)(C)c2cc3cc(-c4cc(C(=O)O)cs4)ccc3cc21 [CD2314]
- amount of calcium salt deposition (iPS cells; [6]): increased

Structure (SMILES): CCCCCCCCc1ccc(-c2ccc(C(=O)O)cc2)cc1 [AC 55649]
- amount of calcium salt deposition (iPS cells; [6]): increased

Structure (SMILES): CC1(C)CC=C(C#Cc2ccccc2)c2cc(/C=C/c3ccc(C(=O)O)cc3)ccc21 [BMS 493]
- amount of calcium salt deposition (iPS cells; culture medium supplemented with pan-RAR antagonist for 10 days, induction by RA, FIG. 12): The effects of RA were completely eliminated

Structure (SMILES): CC1(C)CCC(C)(C)c2cc(Cn3cccn3)c(/C=C/c3ccc(C(=O)O)cc3)cc21 [R667]
- amount of calcium salt deposition (iPS cells; day 10, agonist instead of retinoic acid, 100 nM, FIG. 14): such effects were not observed

Structure (SMILES): CC1(C)CCC(C)(C)c2cc(NC(=O)c3ccc(C(=O)O)cc3)ccc21 [Am 80]
- amount of calcium salt deposition (iPS cells; [7]): increased

Structure (SMILES): O=C(Nc1cccc2cccnc12)c1ccc(N2C(=O)[C@@H]3[C@H](C2=O)[C@@H]2C=C[C@H]3C2)cc1 [IWR1]
- amount of calcium salt deposition (iPS cells; culture medium supplemented with BMP or WNT inhibitor for 10 days, induction by retinoic acid, FIG. 11): increase in calcium salt deposition by retinoic acid was inhibited

Structure (SMILES): CC1(C)CCC(C)(C)c2cc(C(=O)Nc3ccc(C(=O)O)cc3)ccc21 [Am 580]
- amount of calcium salt deposition (iPS cells; day 10, agonist instead of retinoic acid, 200 nM, FIG. 14): increased

Structure (SMILES): CO[C@H]1C[C@@H]2CC[C@@H](C)[C@@](O)(O2)C(=O)C(=O)N2CCCC[C@H]2C(=O)O[C@H]([C@H](C)C[C@@H]2CC[C@@H](OCCO)[C@H](OC)C2)CC(=O)[C@H](C)/C=C(\C)[C@@H](O)[C@@H](OC)C(=O)[C@H](C)C[C@H](C)/C=C/C=C/C=C/1C [everolimus]
- Type I collagen secretion and distribution [1]: remarkably improved
- ER stress (expression of the ER stress-related gene BiP) [2]: suggested reduction of ER stress
- amount of calcium salt deposition [3]: improves
- capacity of forming alizarin red-positive calcified nodules [4]: improves

- tumor formation [5]: no tumor formation was observed
Structure (SMILES): CC1=C(/C=C/C(C)=C/C=C/C(C)=C/C(=O)O)C(C)(C)CCC1 [retinoic acid]

Structure (SMILES): O=C(O)c1ccc2cc(-c3ccc(O)c(C45CC6CC(CC(C6)C4)C5)c3)ccc2c1 [CD437]
- amount of calcium salt deposition (iPS cells; [7]): such effects were not observed
